Reference: publication PMC11823630, “In vitro potentiation of tetracyclines in Pseudomonas aeruginosa by RW01, a new cyclic peptide” (Antimicrobial Agents and Chemotherapy, 2024)
In brackets after ≈: the same amount, converted by molar mass.

Experiments:
[1] = tested on: PAO1 mutant MIN8_4, pilZ(nt18InsT); experiment: MIC, MHB microdilution; details: Pseudomonas aeruginosa, PAO1, read-out: MIC, MHB microdilution
[2] = tested on: PAO1 mutant MIN16_3, nfxB(nt79∆14), pilB(N349K); experiment: MIC, MHB microdilution; details: Pseudomonas aeruginosa, PAO1, read-out: MIC, MHB microdilution
[3] = tested on: PAO1 mutant MIN16_1, nalD(T43P); experiment: MIC, MHB microdilution; details: Pseudomonas aeruginosa, PAO1, read-out: MIC, MHB microdilution
[4] = tested on: PAO1 mutant MIN1_RW01_2, mexR(G58E), pilB(G326D), hutC(Y181X); experiment: MIC, MHB microdilution; details: Pseudomonas aeruginosa, PAO1, read-out: MIC, MHB microdilution
[5] = tested on: P. aeruginosa PAO1; experiment: MIC in the presence of 25% mouse serum; details: for MIC: Pseudomonas aeruginosa
[6] = tested on: PAO1 mutant MIN8_3, pilZ(nt18InsT); experiment: MIC, MHB microdilution; details: Pseudomonas aeruginosa, PAO1, read-out: MIC, MHB microdilution
[7] = tested on: PAO1 mutant MIN32_1, mexR(R63H), pilB(N349K), PA0646(V316G); experiment: MIC, MHB microdilution; details: Pseudomonas aeruginosa, PAO1, read-out: MIC, MHB microdilution
[8] = tested on: PAO1 mutant MIN16_2, nalC(aa9∆4), pilQ(nt46∆1); experiment: MIC, MHB microdilution; details: Pseudomonas aeruginosa, PAO1, read-out: MIC, MHB microdilution
[9] = tested on: PAO1 mutant MIN8_2, pilZ(nt18InsT); experiment: MIC, MHB microdilution; details: Pseudomonas aeruginosa, PAO1, read-out: MIC, MHB microdilution
[10] = tested on: PAO1 mutant MIN4_RW01_3, pmrB(M292T); experiment: MIC, MHB microdilution; details: Pseudomonas aeruginosa, PAO1, read-out: MIC, MHB microdilution
[11] = tested on: P. aeruginosa PAO1; experiment: Checkerboard assay with RW01; format: cell-based, Pseudomonas aeruginosa; details: for average FIC Index: antibiotic combined with RW01, checkerboard, AST broth, 37°C, 18–22 h, three biological replicates
Method: (§1) To assess the in vitro interaction between RW01 and tetracyclines, the checkerboard assay method was performed in 96-well microtiter plates using strains PAO1 and PAOUW. In the same way as for MIC determination, BD Phoenix AST Broth (Becton Dickinson) medium was used for bacterial growth. Minocycline and tigecycline combined with RW01 were the agents selected for the assay. A column and a row of wells in the checkerboard plate were reserved for controls of each antimicrobial individually to ensure the proper concentration of the agents. Positive and negative controls were also included. Wells in rows contained serial dilutions of RW01 starting from 512 mg/L, while those in columns varied in concentrations of the antibiotic. Inoculum at ~5 × 10⁵ CFU/mL, antibiotic, RW01, and AST broth were added to a final volume of 200 µL. Plates were incubated at 37°C for 18–22 h under aerobic conditions. Three biological replicates were obtained. Fractional inhibitory concentration index (FICI) is defined as the summatory of fractional inhibitory concentrations (FICs) from compound A: RW01, and compound B: minocycline/tigecycline. FICs were calculated as:
(§2) FIC of RW01 (FICRW01)=MIC of RW01 in combination/MIC of RW01 alone,FIC of antibiotic (FICATB)=MIC of ATB in combination/MIC of ATB alone,FICI=FICRW01 +FICATB.
(§3) FICI was interpreted as follows: synergistic effect if FICI is ≤0.5; additive effect if 0.5 < FICI ≤ 1.0; indifferent effect if 1.0 < FICI ≤ 2.0; and finally, antagonistic effect if FICI is >2.0. The average FICI considering the antibiotic MIC (no growth in any of the replicates) at different concentrations of RW01 was calculated ([28]).

[12] = tested on: P. aeruginosa PAOUW; experiment: Checkerboard assay with RW01; format: cell-based, Pseudomonas aeruginosa; details: for average FIC Index: antibiotic combined with RW01, checkerboard, AST broth, 37°C, 18–22 h, three biological replicates
Method: as §1, §2, §3

[13] = tested on: PAO1 one-step mutants; experiment: MIC, MHB microdilution, mutants summarised as a group; format: cell-based, Pseudomonas aeruginosa
Method: (§4) MIC for RW01 was also tested.
(§5) Selection of resistant mutants was performed for minocycline with and without RW01 in three independent replicates for wild-type P. aeruginosa reference strain PAO1. Tubes containing Mueller-Hinton broth (MHB) were inoculated and incubated for 24 h at 37°C. Afterward, 1/100 dilution of each tube was incubated at 37°C in MHB to late-exponential growth phase, measured by spectrophotometry at OD600. […] A control plate without antibiotic was included as inoculum control. After overnight incubation, colony counting of each treatment was performed to analyze the generation of resistant population. The mutant prevention concentration (MPC) was defined as the lowest concentration of antibiotic yielding no growth of resistant mutants. Selected mutants were checked for susceptibility profiles by using a Sensititre custom plate (Thermo Fisher Scientific, Massachusetts, USA) for Gram-negative bacteria, following the manufacturer’s instructions.

[14] = tested on: PAO1 mutant MIN2_RW01_3, parS(V152A); experiment: MIC, MHB microdilution; details: Pseudomonas aeruginosa, PAO1, read-out: MIC, MHB microdilution
[15] = tested on: P. aeruginosa PAO1; experiment: One-step mutant generation and resistant population analysis on MHA; format: cell-based, Pseudomonas aeruginosa
Method: as §5

[16] = tested on: PAO1 mutant MIN32_1, mexR(R63H), pilB(N349K), PA0646(V316G); experiment: MIC, E-test on MHA; format: cell-based; details: Pseudomonas aeruginosa, PAO1, read-out: MIC, E-test
[17] = tested on: PAO1 mutant MIN2_RW01_2, pmrB(M292T); experiment: MIC, E-test on MHA; format: cell-based; details: Pseudomonas aeruginosa, PAO1, read-out: MIC, E-test
[18] = tested on: PAO1 mutant MIN1_RW01_3, pmrB(V215L); experiment: MIC, E-test on MHA; format: cell-based; details: Pseudomonas aeruginosa, PAO1, read-out: MIC, E-test
[19] = tested on: PAO1 mutant MIN1_RW01_2, mexR(G58E), pilB(G326D), hutC(Y181X); experiment: MIC, E-test on MHA; format: cell-based; details: Pseudomonas aeruginosa, PAO1, read-out: MIC, E-test
[20] = tested on: PAO1 mutant MIN16_3, nfxB(nt79∆14), pilB(N349K); experiment: MIC, E-test on MHA; format: cell-based; details: Pseudomonas aeruginosa, PAO1, read-out: MIC, E-test
[21] = tested on: 10 P. aeruginosa strains; experiment: MIC with and without RW01, summary over the strain collection; format: cell-based, Pseudomonas aeruginosa; details: RW01 100 mg/L; all strains tested
Method: as §4

[22] = tested on: PAO1 mutant MIN8_2, pilZ(nt18InsT); experiment: MIC, E-test on MHA; format: cell-based; details: Pseudomonas aeruginosa, PAO1, read-out: MIC, E-test

## CN(C)c1ccc(O)c2c1C[C@H]1C[C@H]3[C@H](N(C)C)C(O)=C(C(N)=O)C(=O)[C@@]3(O)C(O)=C1C2=O [Minocycline, minocycline]
[1]
  MIC: 16 µg/mL (≈ 35 µM)
[2]
  MIC: 16 to 32 µg/mL (≈ 35 to 69.9 µM)
[3]
  MIC: 16 µg/mL (≈ 35 µM)
[4]
  MIC: 32 to 64 µg/mL (≈ 69.9 to 140 µM)
[5]; PAO1, read-out: MIC + RW01 in the presence of serum
  MIC: 4 µg/mL
[5]; PAO1, read-out: MIC in the presence of serum
  MIC: 32 µg/mL
[6]
  MIC: 16 µg/mL (≈ 35 µM)
[7]
  MIC: 32 to 64 µg/mL (≈ 69.9 to 140 µM)
[8]
  MIC: 16 µg/mL (≈ 35 µM)
[9]
  MIC: 16 µg/mL (≈ 35 µM)
[10]
  MIC: 64 µg/mL (≈ 140 µM)
[11]
  interaction with RW01 (checkerboard): additive
  average FIC Index: 0.535
[12]
  interaction with RW01 (checkerboard): synergistic
  average FIC Index: 0.406
[13]; Pseudomonas aeruginosa, PAO1, read-out: highest MIC among the mutants
  MIC: ≤ 64 µg/mL
[13]; agent alone, both mutant types, for minocycline the typical range
  MIC range over the tested mutants: 16 to 32 µg/mL
[13]; mutants selected by minocycline + RW01
  MIC of the minocycline-RW01 combination: 4.0 to 8.0 µg/mL
[14]
  MIC: 16 µg/mL (≈ 35 µM)
[15]; PAO1, minocycline alone, three independent replicates
  mutant prevention concentration (MPC): 32 to 64 mg/L
[15]; PAO1, minocycline co-administered with RW01 100 mg/L
  mutant prevention concentration (MPC) with RW01: 8 mg/L
[15]; Pseudomonas aeruginosa, PAO1, read-out: MIC (population studies)
  MIC: 4 to 8 µg/mL (≈ 8.74 to 17.5 µM)

## CN(C)c1cc(NC(=O)CNC(C)(C)C)c(O)c2c1C[C@H]1C[C@H]3[C@H](N(C)C)C(O)=C(C(N)=O)C(=O)[C@@]3(O)C(O)=C1C2=O [Tigecycline, tigecycline]
[16]
  MIC: 24 µg/mL (≈ 41 µM)
[17]
  MIC: 16 µg/mL (≈ 27.3 µM)
[18]
  MIC: 16 µg/mL (≈ 27.3 µM)
[19]
  MIC: 32 µg/mL (≈ 54.6 µM)
[11]
  interaction with RW01 (checkerboard): additive
  average FIC Index: 0.677
[12]
  interaction with RW01 (checkerboard): synergistic
  average FIC Index: 0.446
[20]
  MIC: 48 µg/mL (≈ 82 µM)
[21]
  MIC reduction on combination with RW01 over the strains: four- to eightfold
[22]
  MIC: 32 µg/mL (≈ 54.6 µM)

## C[C@H]1c2cccc(O)c2C(=O)C2=C(O)[C@]3(O)C(=O)C(C(N)=O)=C(O)[C@@H](N(C)C)[C@@H]3[C@@H](O)[C@@H]21 [Doxycycline, doxycycline]
[16]
  MIC: 256 µg/mL (≈ 576 µM)
[17]
  MIC: 128 µg/mL (≈ 288 µM)
[18]
  MIC: 64 µg/mL (≈ 144 µM)
[5]; PAO1, antibiotic alone, 25% non-inactivated C57BL/6RJ mouse serum
  MIC in the presence of serum: unchanged
[5]; PAO1, antibiotic with RW01 100 mg/L, 25% non-inactivated C57BL/6RJ mouse serum
  MIC + RW01 in the presence of serum: unchanged
[19]
  MIC: 256 µg/mL (≈ 576 µM)
[20]
  MIC: 192 µg/mL (≈ 432 µM)
[22]
  MIC: 256 µg/mL (≈ 576 µM)
